Measured values taken from patent US10376520B2, “Methods for the treatment of cardiovascular disorders” (Galapagos NV, priority 2015, dated 2019).

System: RA patients
Assay: LDL determination, Study 2 (RA patients, monotherapy)
Format: in vivo, human
Excerpt: Randomized, double-blind, placebo-controlled, multicenter, phase IIb dose finding study of Compound 1 (dosed as a [Compound 1:HCl:3H2O]) administered for 24 weeks as monotherapy to subjects with moderately to severely active rheumatoid arthritis who have an inadequate response to methotrexate alone
Double-blind, placebo-controlled, monotherapy study in subjects with moderately to severely active RA who have an inadequate response to methotrexate (MTX) (oral or parenteral).
280 subjects randomized to one of 3 doses of Compound 1 (dosed as a [Compound 1:HCl:3H2O]) or to placebo, given once daily (q.d.).
Twelve weeks of treatment with Compound 1 (dosed as a [Compound 1:HCl:3H2O]) at 50 mg, 100 mg, or 200 mg q.d.; or placebo. At Week 12, all subjects on placebo and the subjects on the 50 mg dose who have not achieved 20% improvement in swollen joint count (SJC66) and tender joint count (TJC68) will be assigned to 100 mg q.d. in a blinded fashion and will continue treatment until Week 24. Subjects in the other groups will maintain their randomized treatment until Week 24.
The determination of [LDL]-cholesterol is made using an automated method taking advantage of the selective micellary solubilization of [LDL]-cholesterol by a nonionic detergent and the interaction of a sugar compound and lipoproteins (VLDL and chylomicrons).
When a detergent is included in the enzymatic method for cholesterol determination (cholesterol esterase, cholesterol oxidase coupling reaction), the relative reactivities of cholesterol in the lipoprotein fractions increase in this order: [HDL]<chylomicrons <VLDL <[LDL]. In the presence of Mg^2+, a sugar compound markedly reduces the enzymatic reaction of the cholesterol measurement in VLDL and chylomicrons. The combination of a sugar compound with detergent enables the selective determination of [LDL]-cholesterol in serum. (Friedewald et al., 1972; Rifai et al., 1992)
Homogeneous enzymatic colorimetric assay.
In the presence of peroxidase, the hydrogen peroxide generated reacts with 4-aminoantipyrine and Sodium N-(2-hydroxy-3-sulfopropyl)-3,5-dimethoxyaniline (HSDA) to form a purple-blue dye.
The color intensity of this dye is directly proportional to the cholesterol concentration and is measured photometrically.
Human serum and plasma samples [LDL] determination was done on a Roche/Hitachi Cobas c 701/702 system which automatically calculate the analyte concentration of each sample. Samples containing precipitates are centrifuged before performing the assay.

[1] = Study 2 12 weeks results, 50 mg q.d., week 12
[2] = Study 2 12 weeks results, 100 mg q.d., week 1
[3] = Study 2 12 weeks results, 100 mg q.d., week 2
[4] = Study 2 12 weeks results, 100 mg q.d., week 4
[5] = Study 2 12 weeks results, 100 mg q.d., week 8
[6] = Study 2 12 weeks results, 100 mg q.d., week 12
[7] = Study 2 12 weeks results, 200 mg q.d., week 1
[8] = Study 2 12 weeks results, 200 mg q.d., week 2
[9] = Study 2 12 weeks results, 200 mg q.d., week 4
[10] = Study 2 12 weeks results, 200 mg q.d., week 8
[11] = Study 2 12 weeks results, 200 mg q.d., week 12
[12] = Study 2 24 weeks results, 50 mg q.d. non responders switching to 100 mg q.d. at week 12, week 1
[13] = Study 2 24 weeks results, 50 mg q.d. non responders switching to 100 mg q.d. at week 12, week 2
[14] = Study 2 24 weeks results, 50 mg q.d. non responders switching to 100 mg q.d. at week 12, week 4
[15] = Study 2 24 weeks results, 50 mg q.d. non responders switching to 100 mg q.d. at week 12, week 8
[16] = Study 2 24 weeks results, 50 mg q.d. non responders switching to 100 mg q.d. at week 12, week 12
[17] = Study 2 24 weeks results, 50 mg q.d. non responders switching to 100 mg q.d. at week 12, week 16
[18] = Study 2 24 weeks results, 50 mg q.d. non responders switching to 100 mg q.d. at week 12, week 20
[19] = Study 2 24 weeks results, 50 mg q.d. non responders switching to 100 mg q.d. at week 12, week 24
[20] = Study 2 24 weeks results, 50 mg q.d. responders, week 1
[21] = Study 2 24 weeks results, 50 mg q.d. responders, week 2
[22] = Study 2 24 weeks results, 50 mg q.d. responders, week 4
[23] = Study 2 24 weeks results, 50 mg q.d. responders, week 8
[24] = Study 2 24 weeks results, 50 mg q.d. responders, week 12
[25] = Study 2 24 weeks results, 50 mg q.d. responders, week 16
[26] = Study 2 24 weeks results, 50 mg q.d. responders, week 20
[27] = Study 2 24 weeks results, 50 mg q.d. responders, week 24
[28] = Study 2 24 weeks results, 100 mg q.d., week 1
[29] = Study 2 24 weeks results, 100 mg q.d., week 2
[30] = Study 2 24 weeks results, 100 mg q.d., week 4
[31] = Study 2 24 weeks results, 100 mg q.d., week 8
[32] = Study 2 24 weeks results, 100 mg q.d., week 12
[33] = Study 2 24 weeks results, 100 mg q.d., week 16
[34] = Study 2 24 weeks results, 100 mg q.d., week 20
[35] = Study 2 24 weeks results, 100 mg q.d., week 24
[36] = Study 2 24 weeks results, 200 mg q.d., week 1
[37] = Study 2 24 weeks results, 200 mg q.d., week 2
[38] = Study 2 24 weeks results, 200 mg q.d., week 4
[39] = Study 2 24 weeks results, 200 mg q.d., week 8
[40] = Study 2 24 weeks results, 200 mg q.d., week 12
[41] = Study 2 24 weeks results, 200 mg q.d., week 16
[42] = Study 2 24 weeks results, 200 mg q.d., week 20
[43] = Study 2 24 weeks results, 200 mg q.d., week 24
[44] = Study 2 24 weeks results, placebo switching to 100 mg q.d. at week 12, week 16
[45] = Study 2 24 weeks results, placebo switching to 100 mg q.d. at week 12, week 20
[46] = Study 2 24 weeks results, placebo switching to 100 mg q.d. at week 12, week 24
[47] = placebo switching to 100 mg q.d. at week 12, week 20
[48] = placebo switching to 100 mg q.d. at week 12, week 24

O=C(Nc1nc2cccc(-c3ccc(CN4CCS(=O)(=O)CC4)cc3)n2n1)C1CC1 [Compound 1, cyclopropanecarboxylic acid {5-[4-(1,1-dioxo-thiomorpholin-4-ylmethyl)-phenyl]-[1,2,4]triazolo[1,5-a]pyridin-2yl}-amide]
[LDL] Mean CFB [1]: 0.090 mmol/L | [LDL] Median CFB [1]: 0.040 mmol/L | [LDL] Mean CFB [2]: 0.116 mmol/L | [LDL] Median CFB [2]: 0.070 mmol/L | [LDL] Mean CFB [3]: 0.105 mmol/L | [LDL] Median CFB [3]: -0.050 mmol/L | [LDL] Mean CFB [4]: 0.195 mmol/L | [LDL] Median CFB [4]: 0.140 mmol/L | [LDL] Mean CFB [5]: 0.162 mmol/L | [LDL] Median CFB [5]: 0.140 mmol/L | [LDL] Mean CFB [6]: 0.278 mmol/L | [LDL] Median CFB [6]: 0.180 mmol/L | [LDL] Mean CFB [7]: 0.209 mmol/L | [LDL] Median CFB [7]: 0.180 mmol/L | [LDL] Mean CFB [8]: 0.192 mmol/L | [LDL] Median CFB [8]: 0.130 mmol/L | [LDL] Mean CFB [9]: 0.216 mmol/L | [LDL] Median CFB [9]: 0.290 mmol/L | [LDL] Mean CFB [10]: 0.212 mmol/L | [LDL] Median CFB [10]: 0.230 mmol/L | [LDL] Mean CFB [11]: 0.347 mmol/L | [LDL] Median CFB [11]: 0.315 mmol/L | [LDL] Mean CFB [12]: 0.08 mmol/L | [LDL] Median CFB [12]: 0.07 mmol/L | [LDL] Mean CFB [13]: 0.00 mmol/L | [LDL] Median CFB [13]: -0.02 mmol/L | [LDL] Mean CFB [14]: 0.17 mmol/L | [LDL] Median CFB [14]: 0.05 mmol/L | [LDL] Mean CFB [15]: 0.10 mmol/L | [LDL] Median CFB [15]: 0.10 mmol/L | [LDL] Mean CFB [16]: 0.11 mmol/L | [LDL] Median CFB [16]: 0.09 mmol/L | [LDL] Mean CFB [17]: 0.22 mmol/L | [LDL] Median CFB [17]: 0.20 mmol/L | [LDL] Mean CFB [18]: 0.03 mmol/L | [LDL] Median CFB [18]: -0.04 mmol/L | [LDL] Mean CFB [19]: 0.14 mmol/L | [LDL] Median CFB [19]: 0.15 mmol/L | [LDL] Mean CFB [20]: -0.01 mmol/L | [LDL] Median CFB [20]: -0.01 mmol/L | [LDL] Mean CFB [21]: -0.07 mmol/L | [LDL] Median CFB [21]: -0.06 mmol/L | [LDL] Mean CFB [22]: 0.01 mmol/L | [LDL] Median CFB [22]: -0.05 mmol/L | [LDL] Mean CFB [23]: 0.16 mmol/L | [LDL] Median CFB [23]: 0.14 mmol/L | [LDL] Mean CFB [24]: 0.09 mmol/L | [LDL] Median CFB [24]: 0.03 mmol/L | [LDL] Mean CFB [25]: 0.18 mmol/L | [LDL] Median CFB [25]: 0.16 mmol/L | [LDL] Mean CFB [26]: 0.00 mmol/L | [LDL] Median CFB [26]: 0.12 mmol/L | [LDL] Mean CFB [27]: 0.00 mmol/L | [LDL] Median CFB [27]: -0.01 mmol/L | [LDL] Mean CFB [28]: 0.12 mmol/L | [LDL] Median CFB [28]: 0.07 mmol/L | [LDL] Mean CFB [29]: 0.10 mmol/L | [LDL] Median CFB [29]: -0.05 mmol/L | [LDL] Mean CFB [30]: 0.19 mmol/L | [LDL] Median CFB [30]: 0.14 mmol/L | [LDL] Mean CFB [31]: 0.16 mmol/L | [LDL] Median CFB [31]: 0.14 mmol/L | [LDL] Mean CFB [32]: 0.28 mmol/L | [LDL] Median CFB [32]: 0.18 mmol/L | [LDL] Mean CFB [33]: 0.28 mmol/L | [LDL] Median CFB [33]: 0.20 mmol/L | [LDL] Mean CFB [34]: 0.25 mmol/L | [LDL] Median CFB [34]: 0.23 mmol/L | [LDL] Mean CFB [35]: 0.31 mmol/L | [LDL] Median CFB [35]: 0.31 mmol/L | [LDL] Mean CFB [36]: 0.21 mmol/L | [LDL] Median CFB [36]: 0.18 mmol/L | [LDL] Mean CFB [37]: 0.19 mmol/L | [LDL] Median CFB [37]: 0.13 mmol/L | [LDL] Mean CFB [38]: 0.22 mmol/L | [LDL] Median CFB [38]: 0.29 mmol/L | [LDL] Mean CFB [39]: 0.21 mmol/L | [LDL] Median CFB [39]: 0.23 mmol/L | [LDL] Mean CFB [40]: 0.35 mmol/L | [LDL] Median CFB [40]: 0.32 mmol/L | [LDL] Mean CFB [41]: 0.30 mmol/L | [LDL] Median CFB [41]: 0.23 mmol/L | [LDL] Mean CFB [42]: 0.29 mmol/L | [LDL] Median CFB [42]: 0.25 mmol/L | [LDL] Mean CFB [43]: 0.38 mmol/L | [LDL] Median CFB [43]: 0.34 mmol/L | [LDL] Mean CFB [44]: 0.07 mmol/L | [LDL] Median CFB [44]: -0.05 mmol/L | [LDL] Mean CFB [45]: 0.16 mmol/L | [LDL] Median CFB [45]: 0.03 mmol/L | [LDL] Mean CFB [46]: 0.10 mmol/L | [LDL] Median CFB [46]: 0.12 mmol/L | [LDL] Mean percentage CFB - 24 weeks results (placebo switching to 100 mg q.d. at week 12, week 16): 2.82% | [LDL] Mean percentage CFB - 24 weeks results [47]: 5.77% | [LDL] Median percentage CFB - 24 weeks results [47]: 1.00% | [LDL] Mean percentage CFB - 24 weeks results [48]: 4.50% | [LDL] Median percentage CFB - 24 weeks results [48]: 4.13%
